Laboratory results reported in ChEMBL document CHEMBL4152286, “3'-O-Substituted 5-(perylen-3-ylethynyl)-2'-deoxyuridines as tick-borne encephalitis virus reproduction inhibitors” (Eur J Med Chem, 2018).
In brackets after ≈: the same amount, converted by molar mass.

Assays:
[1] = Cytotoxicity against PEK cells after 7 days by microscopic method; type: cell-based, Sus scrofa; details: pig
[2] = system: Tick-borne encephalitis virus; test: Antiviral activity against TBEV Absettarov infected in PEK cells assessed as plaque reduction preincubated for 1 hr followed by overlaying with 1.26% methylcellulose and measured after 6 days by gentian violet staining-based assay; type: functional, organism-based
[3] = Cytotoxicity against PEK cells after 24 hrs by microscopic method; type: cell-based, Sus scrofa; details: pig
[4] = Solubility of compound in 5% DMSO by UV-Vis spectrophotometric method; type: physicochemical
[5] = Solubility of compound in 15% DMSO by UV-Vis spectrophotometric method; type: physicochemical

Compound | CC50 at 168 h [1] | EC50 [2] | CC50 at 24 h [3] | solubility [4] | solubility [5]
CSCO[C@H]1C[C@H](n2cc(C#Cc3ccc4c5cccc6cccc(c7cccc3c74)c65)c(=O)[nH]c2=O)O[C@@H]1CO | > 50 µM | 0.0077 µM | > 50 µM | 150 µM (≈ 84.4 µg/mL) | 
[N-]=[N+]=NCO[C@H]1C[C@H](n2cc(C#Cc3ccc4c5cccc6cccc(c7cccc3c74)c65)c(=O)[nH]c2=O)O[C@@H]1CO | 35 µM | 0.0054 µM | > 50 µM | 680 µM (≈ 379 µg/mL) | 
O=c1[nH]c(=O)n([C@H]2C[C@H](OCn3cc(CO)nn3)[C@@H](CO)O2)cc1C#Cc1ccc2c3cccc4cccc(c5cccc1c52)c43 | > 50 µM | 0.03 µM | > 50 µM |  | 
O=c1[nH]c(=O)n([C@H]2C[C@H](OCn3cc(CCO)nn3)[C@@H](CO)O2)cc1C#Cc1ccc2c3cccc4cccc(c5cccc1c52)c43 | > 50 µM | 0.05 µM | > 50 µM |  | 
O=c1[nH]c(=O)n([C@H]2C[C@H](O)[C@@H](CO)O2)cc1C#Cc1ccc2c3cccc4cccc(c5cccc1c52)c43 |  |  |  |  | 7.8 µM (≈ 3.92 µg/mL)
O=c1[nH]c(=O)n([C@H]2C[C@H](OCn3cc(CCCO)nn3)[C@@H](CO)O2)cc1C#Cc1ccc2c3cccc4cccc(c5cccc1c52)c43 | > 50 µM | 0.037 µM | > 50 µM |  | 
O=c1[nH]c(=O)n([C@H]2C[C@H](OCn3cc(CCCCO)nn3)[C@@H](CO)O2)cc1C#Cc1ccc2c3cccc4cccc(c5cccc1c52)c43 | > 50 µM | 0.023 µM | > 50 µM |  | 
